Experimental data from patent US20230011869A1 (Hoffmann-La Roche Inc., priority 2018, published 2023).
Structures can show the parent of a compound that is named as a salt.

These compounds were tested on Acinetobacter baumannii ATCC17961 (assay: Antimicrobial susceptibility testing: 90% growth inhibitory concentration (IC90) determination, Iso-Sensitest broth). Conditions: Acinetobacter baumannii, ATCC17961, 16 h, 90% growth inhibitory concentration, Acinetobacter baumannii ATCC17961, Iso-Sensitest broth, OD 600 nm over 16 h; read-out: ATCC17961 IC90.
Type: cell-based
Description: Antimicrobial Susceptibility Testing:
90% Growth Inhibitory Concentration (IC90) Determination
The in vitro antimicrobial activity of the compounds was determined according to the following procedure:
The assay used a 10-points Iso-Sensitest broth medium to measure quantitatively the in vitro activity of the compounds against Acinetobacter baumannii ATCC17978 and Acinetobacter baumannii ATCC17961.
Stock compounds in DMSO were serially twofold diluted (e.g. range from 50 to 0.097 μM final concentration) in 384 wells microtiter plates and inoculated with 49 μl the bacterial suspension in Iso-Sensitest medium to have a final cell concentration of 5×10^(5) CFU/ml in a final volume/well of 50 ul/well. Microtiter plates were incubated at 35±2° C.
Bacterial cell growth was determined with the measurement of optical density at λ=600 nm each 20 minutes over a time course of 16 h. Growth inhibition was calculated during the logarithmic growth of the bacterial cells with determination of the concentration inhibiting 50% (IC50) and 90% (IC90) of the growth.
Table 1 provides the 90% growth inhibitory concentrations (IC90) in micromoles per liter of the compounds of present invention obtained against the strain Acinetobacter baumannii ATCC17978 and Acinetobacter baumannii ATCC17961.

| Compound | IC90 [nM] |
| --- | --- |
| COc1ccc(-c2cnc3c(Nc4ccc(C(=O)N5CCNCC5)c(C)c4)nccn23)c(F)c1F [Example 141, [4-[[3-(2,3-difluoro-4-methoxyphenyl)imidazo[1,2-a]pyrazin-8-yl]amino]-2-methylphenyl]-piperazin-1-ylmethanone] | 117 |
| COc1ccc(-c2cnc3c(Nc4ccc(C(=O)N5CCN(C(=O)[C@H](CCCNC(=N)N)NC(=O)[C@@H](N)CCC(=O)O)CC5)c(C)c4)nccn23)c(F)c1F [Example 555, (S)-4-amino-5-(((S)-1-(4-(4-((3-(2,3-difluoro-4-methoxyphenyl)imidazo[1,2-a]pyrazin-8-yl)amino)-2-methylbenzoyl)piperazin-1-yl)-5-guanidino-1-oxopentan-2-yl)amino)-5-oxopentanoic acid trihydrochloride] | 704 |
| COc1ccc(-c2cnc3c(Nc4ccc(C(=O)N5CCN(C(=O)[C@@]67CNCC[C@@H]6OC(C)(C)O7)CC5)c(C)c4)nccn23)c(F)c1F (stereo in doubt) [Example 578, rel-(4-(4-((3-(2,3-difluoro-4-methoxyphenyl)imidazo[1,2-a]pyrazin-8-yl)amino)-2-methylbenzoyl)piperazin-1-yl)((3aR,7aS)-2,2-dimethyltetrahydro-[1,3]dioxolo[4,5-c]pyridin-3a(4H)-yl)methanone] | 649 |
| COc1ccc(-c2cnc3c(Nc4ccc(C(=O)N5CCC(C(=O)NCC(O)CN6CCOC(C)C6)CC5)c(C)c4)nccn23)c(F)c1F (stereo not drawn) [Example 571, 1-(4-((3-(2,3-difluoro-4-methoxyphenyl)imidazo[1,2-a]pyrazin-8-yl)amino)-2-methylbenzoyl)-N-(2-hydroxy-3-(2-methylmorpholino)propyl) piperidine-4-carboxamide] | 265 |
| COc1ccc(-c2cnc3c(Nc4ccc(C(=O)N5CCN(C(=O)[C@@H]6CC(C)(C)CN6)CC5)c(C)c4)nccn23)c(F)c1F [Example 76, (S)-(4-(4-((3-(2,3-difluoro-4-methoxyphenyl)imidazo[1,2-a]pyrazin-8-yl)amino)-2-methylbenzoyl)piperazin-1-yl)(4,4-dimethylpyrrolidin-2-yl)methanone hydrochloride] | 91 |
| Cc1cc(Nc2nccn3c(-c4ccc(OCC#N)c(F)c4F)cnc23)ccc1C(=O)N1CCN(C(=O)[C@@H]2C[C@@H](O)CN2)CC1 [Example 200, 2-[2,3-difluoro-4-[8-[4-[4-[(2S,4R)-4-hydroxypyrrolidine-2-carbonyl]piperazine-1-carbonyl]-3-methyl-anilino]imidazo[1,2-a]pyrazin-3-yl]phenoxy] acetonitrile formate] | 67 |

Same assay, conditions: Acinetobacter baumannii, ATCC17961, 16 h, read-out: ATCC17961 IC90

| Compound | IC90 [nM] |
| --- | --- |
| CCc1cc(Nc2nccn3c(-c4ccc(OC(F)F)c(F)c4F)cnc23)ccc1C(=O)N1CCN(C(=O)C2CCN(CC3CNC3)CC2)CC1 [Example 588, (1-(azetidin-3-ylmethyl)piperidin-4-yl)(4-(4-((3-(4-(difluoromethoxy)-2,3-difluorophenyl)imidazo[1,2-a]pyrazin-8-yl)amino)-2-ethylbenzoyl)piperazin-1-yl)methanone tris(2,2,2-trifluoroacetate)] | 116 |

What follows are compounds tested on Acinetobacter baumannii ATCC17978 in the same assay as above. Conditions: 90% growth inhibitory concentration, Acinetobacter baumannii ATCC17978, Iso-Sensitest broth, OD 600 nm over 16 h; read-out: ATCC17978 IC90.
Type: cell-based
Method in brief: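 A. baumannii ATCC17978 grown in Iso-Sensitest broth across 10 compound concentrations at 35±2 °C.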

| Compound | IC90 [nM] |
| --- | --- |
| COc1ccc(-c2cnc3c(Nc4ccc(C(=O)N5CCN(C(=O)C(CCC(=O)O)NC(=O)[C@@H](N)CCCCN)CC5)c(C)c4)nccn23)c(F)c1F (mixture of isomers) [Example 536, 5-[4-[4-[[3-(2,3-difluoro-4-methoxyphenyl)imidazo[1,2-a]pyrazin-8-yl]amino]-2-methylbenzoyl]piperazin-1-yl]-5-oxo-4-[[rac-(2R)-2,6-diaminohexanoyl]amino]pen-tanoic acid; hydrochloride] | 4100 |
| COc1ccc(-c2cnc3c(Nc4ccc(C(=O)N5CCN(C6CC6)CC5)c(C)c4)nccn23)cc1F [Example 426, (4-cyclopropylpiperazin-1-yl)-[4-[[3-(3-fluoro-4-methoxyphenyl)imidazo[1,2-a]pyrazin-8-yl]amino]-2-methylphenyl]methanone] | 1200 |
| COc1ccc(-c2cnc3c(Nc4ccc(C(=O)N5CCN(CCN(C)C)CC5)c(C)c4)nccn23)cc1F [Example 35, (4-(2-(dimethylamino)ethyl)piperazin-1-yl)(4-((3-(3-fluoro-4-methoxyphenyl)imidazo[1,2-a]pyrazin-8-yl)amino)-2-methylphenyl)methanone] | 250 |
| Cc1cc(Nc2nccn3c(-c4ccc(OC(F)F)cc4)cnc23)ccc1C(=O)N1CCN(C(=O)N2CCO[C@@H](CN)C2)CC1 [Example 146, [4-[(2S)-2-(aminomethyl)morpholine-4-carbonyl]piperazin-1-yl]-[4-[[3-[4-(difluoromethoxy)phenyl]imidazo[1,2-a]pyrazin-8-yl]amino]-2-methyl-phenyl]methanone formate] | 300 |

Same assay, conditions: Acinetobacter baumannii, ATCC17978, 16 h, read-out: ATCC17978 IC90, 90% growth inhibitory concentration, Acinetobacter baumannii ATCC17978, Iso-Sensitest broth, OD 600 nm over 16 h

| Compound | IC90 [nM] |
| --- | --- |
| CCC(C#N)Oc1ccc(-c2cnc3c(Nc4ccc(C(=O)N5CCC(CN)CC5)c(C)c4)nccn23)c(F)c1F (stereo not drawn) [Example 564, 2-(4-(8-((4-(4-(aminomethyl)piperidine-1-carbonyl)-3-methylphenyl)amino)imidazo [1,2-a]pyrazin-3-yl)-2,3-difluorophenoxy)butanenitrile formate] | 969 |
| Cc1cc(Nc2nccn3c(-c4ccc(OC(F)F)cc4)cnc23)ccc1C(=O)N1CCN(C(=O)N[C@H](C)CN)CC1 [Example 482, N-[(2R)-1-aminopropan-2-yl]-4-[4-[[3-[4-(difluoromethoxy)phenyl]imi-dazo[1,2-a]pyrazin-8-yl]amino]-2-methylbenzoyl]piperazine-1-carboxamide; hydrochlroide] | 170 |
| COc1ccc(-c2cnc3c(Nc4ccc(C(=O)N5CCC(C(=O)NCC6CNCCN6)CC5)c(C)c4)nccn23)cc1F (stereo not drawn) [Example 403, 1-[4-[[3-(3-fluoro-4-methoxyphenyl)imidazo[1,2-a]pyrazin-8-yl]amino]-2-methylbenzoyl]-N-(piperazin-2-ylmethyl)piperidine-4-carboxamide; 2,2,2-trifluoroacetic acid] | 440 |
| Cc1cc(Nc2nccn3c(-c4ccc(OC(F)F)cc4)cnc23)ccc1C(=O)N1CCN(C(=O)CC(C)(C)N)CC1 [Example 329, 3-amino-1-[4-[4-[[3-[4-(difluoromethoxy)phenyl]imi-dazo[1.2-a]pyrazin-8-yl]amino]-2-methylbenzoyl]piperazin-1-yl]-3-methylbutan-1-one; hydrochloride] | 400 |
| Cc1cc(Nc2nccn3c(-c4ccc(OC(F)F)cc4)cnc23)ccc1C(=O)N1CCC(C(=O)NCC(O)CN)CC1 (stereo not drawn) [Example 299, N-(3-amino-2-hydroxypropyl)-1-[4-[[3-[4-(difluoromethoxy)phenyl]imi-dazo[1,2-a]pyrazin-8-yl]amino]-2-methylbenzoyl]piperidine-4-carboxamide; hydrochloride] | 200 |
| Cc1cc(Nc2nccn3c(-c4ccc(OC(F)F)cc4)cnc23)ccc1C(=O)N1CCC(C(=O)N2C3CCC2CNC3)CC1 [Example 318, [4-(3,8-diazabicyclo[3.2.1]octane-8-carbonyl)piperidin-1-yl]-[4-[[3-[4-(difluoromethoxy)phenyl]imi-dazo[1,2-a]pyrazin-8-yl]amino]-2-methylphenyl]methanone; hy-drochloride] | 250 |
| Cc1cc(Nc2nccn3c(-c4ccc(OC(F)F)cc4)cnc23)ccc1C(=O)N1CCOC2(CCNCC2)C1 [Example 379, [4-[[3-[4-(difluoromethoxy)phenyl]imi-dazo[1,2-a]pyrazin-8-yl]amino]-2-methylphenyl]-(1-oxa-4,9-diazaspiro[5.5]undecan-4-yl)methanone; hydrochloride] | 2800 |
| COc1ccc(-c2cnc3c(Nc4ccc(C(=O)N5CCN(C(=O)N[C@@H](C)CN)CC5)c(C)c4)nccn23)c(Cl)c1F [Example 478, formic acid] | 130 |
| Cc1cc(Nc2nccn3c(-c4ccc(OC(F)F)cc4)cnc23)ccc1C(=O)N1CCN(C(=O)[C@@H](N)Cc2cnc[nH]2)CC1 [Example 437, (2S)-2-amino-1-[4-[4-[[3-[4-(difluoromethoxy)phenyl]imi-dazo[1,2-a]pyrazin-8-yl]amino]-2-methylbenzoyl]piperazin-1-yl]-3-(1H-imidazol-5-yl)propan-1-one; hydrochloride] | 770 |

Same assay, conditions: read-out: ATCC17978 IC90; 90% growth inhibitory concentration, Acinetobacter baumannii ATCC17978, Iso-Sensitest broth, OD 600 nm over 16 h; 2,2,2-trifluoroacetate

| Compound | IC90 [nM] |
| --- | --- |
| COc1ccc(-c2cnc3c(Nc4ccc(C(=O)N5CCC(C(=O)NCC6CNC6)CC5)c(C)c4)nccn23)cc1F [Example 60, N-(azetidin-3-ylmethyl)-1-(4-((3-(3-fluoro-4-methoxyphenyl)imidazo[1,2-a]pyrazin-8-yl)amino)-2-methylbenzoyl)piperidine-4-carboxamide 2,2,2-trifluoroacetate] | 210 |
